Test results: ChEMBL document CHEMBL5532646, “Discovery of 4-(N-dithiobenzyl piperazine)-1,8-naphthalimide as a potent multi-target antitumor agent with good efficacy, limited toxicity, and low resistance” (Eur J Med Chem, 2024)
Calls of active or inactive are those of the source. The rule behind the calls is not given here.

How the values were obtained:
MGC-803 = assay: Antiproliferative activity against human MGC-803 cells incubated for 48 hrs by MTT assay; format: functional, cell-based; settings: MGC-803, 48 h
SK-OV-3 [1] = assay: Antiproliferative activity against human SK-OV-3 cells incubated for 48 hrs by MTT assay; format: functional, cell-based; settings: SK-OV-3, 48 h
HepG2 [2] = assay: Antiproliferative activity against human HepG2 cells incubated for 48 hrs by MTT assay; format: functional, cell-based; settings: HepG2, 48 h
T-24 [3] = assay: Antiproliferative activity against human T24 cells incubated for 48 hrs by MTT assay; format: functional, cell-based; settings: T-24, 48 h
A549/CDDP = assay: Antiproliferative activity against human A549/DDP cells incubated for 48 hrs by MTT assay; format: functional, cell-based
[4] = Toxicity in nude mouse model xenografted with human T24 cells assessed as pathological change in lung at 5 to 15 mg/kg, ip administered once every two days for 21 days; format: organism-based, T-24; settings: in vivo, 504 h, dose 5-15 mg/kg, time 21 day
[5] = Toxicity in nude mouse model xenografted with human HepG2 cells assessed as pathological change in liver at 5 to 15 mg/kg, ip administered once every two days for 21 days; format: organism-based; settings: in vivo, 504 h, dose 5-15 mg/kg, time 21 day
T-24 [6] = assay: Antiproliferative activity against human T24 cells xenografted in nude mouse model assessed as tumor inhibition rate at 5 mg/kg, ip administered once every two days for 21 days relative to control; format: functional; settings: T-24, 504 h, time 21 day
HepG2 [7] = assay: Antiproliferative activity against human HepG2 cells xenografted in nude mouse model assessed as tumor inhibition rate at 15 mg/kg, ip administered once every two days for 21 days relative to control; format: functional; settings: HepG2, 504 h, time 21 day
[8] = Toxicity in nude mouse model xenografted with human HepG2 cells assessed as pathological change in heart at 5 to 15 mg/kg, ip administered once every two days for 21 days; format: organism-based; settings: in vivo, 504 h, dose 5-15 mg/kg, time 21 day
[9] = Toxicity in nude mouse model xenografted with human HepG2 cells assessed as pathological change in spleen at 5 to 15 mg/kg, ip administered once every two days for 21 days; format: organism-based; settings: in vivo, 504 h, dose 5-15 mg/kg, time 21 day
HepG2 [10] = assay: Antiproliferative activity against human HepG2 cells xenografted in nude mouse model assessed as tumor inhibition rate at 5 mg/kg, ip administered once every two days for 21 days relative to control; format: functional; settings: HepG2, 504 h, time 21 day
[11] = Toxicity in nude mouse model xenografted with human HepG2 cells assessed as pathological change in lung at 5 to 15 mg/kg, ip administered once every two days for 21 days; format: organism-based; settings: in vivo, 504 h, dose 5-15 mg/kg, time 21 day
[12] = Toxicity in nude mouse model xenografted with human T24 cells assessed as pathological change in liver at 5 to 15 mg/kg, ip administered once every two days for 21 days; format: organism-based, T-24; settings: in vivo, 504 h, dose 5-15 mg/kg, time 21 day
[13] = Toxicity in nude mouse model xenografted with human T24 cells assessed as pathological change in spleen at 5 to 15 mg/kg, ip administered once every two days for 21 days; format: organism-based, T-24; settings: in vivo, 504 h, dose 5-15 mg/kg, time 21 day
A549 = assay: Antiproliferative activity against human A549 cells incubated for 48 hrs by MTT assay; format: functional, cell-based
[14] = Toxicity in nude mouse model xenografted with human T24 cells assessed as pathological change in heart at 5 to 15 mg/kg, ip administered once every two days for 21 days; format: organism-based, T-24; settings: in vivo, 504 h, dose 5-15 mg/kg, time 21 day
T-24 [15] = assay: Antiproliferative activity against human T24 cells xenografted in nude mouse model assessed as tumor inhibition rate at 15 mg/kg, ip administered once every two days for 21 days relative to control; format: functional; settings: T-24, 504 h, time 21 day
SK-OV-3 [16] = assay: Antiproliferative activity against human SK-OV-3 cells xenografted in nude mouse model assessed as tumor inhibition rate at 5 mg/kg, ip administered once every two days for 21 days relative to control; format: functional; settings: SK-OV-3, 504 h, time 21 day

Row | SMILES | IC50 (MGC-803) [µM] | IC50 (SK-OV-3 [1]) [µM] | IC50 (HepG2 [2]) [µM] | IC50 (T-24 [3]) [µM] | further results
1 | O=C1c2cccc3c(N4CCN(C(=S)SCc5ccccc5)CC4)ccc(c23)C(=O)N1CCO | 18.5 | 14.3 | 16.8 | 16.4 | 
2 | O=C1c2cccc3c(N4CCN(C(=S)SCc5ccccc5)CC4)ccc(c23)C(=O)N1Nc1ccccn1 | > 50 | > 50 | > 50 | > 50 | 
3 | CC(C)(C)OC(=O)N1CCN(c2ccc3c4c(cccc24)C(=O)N(CCc2ccc(O)c(O)c2)C3=O)CC1 | 32.4 | 26.4 | 30.5 | 25.1 | 
4 | O=C1c2cccc3c(N4CCN(C(=S)SCc5ccccc5)CC4)ccc(c23)C(=O)N1Cc1ccc(Cl)cc1 | 20.5 | 28.8 | 25.3 | 21.1 | 
5 | CC(C)(C)OC(=O)N1CCN(c2ccc3c4c(cccc24)C(=O)N(Cc2ccccc2)C3=O)CC1 | > 50 | > 50 | > 50 | > 50 | 
6 | CN(C)CCN1C(=O)c2cccc3c(N4CCN(C(=O)c5ccccc5)CC4)ccc(c23)C1=O | 5.73 | 2.01 | 4.78 | 2.08 | Activity (A549/CDDP): Active; Activity [4]: Non-Toxic; Activity [5]: Non-Toxic; inhibition in vivo at 5 mg/kg (T-24 [6]): 55%; inhibition in vivo at 15 mg/kg (HepG2 [7]): 54.5%; Activity [8]: Non-Toxic; Activity [9]: Non-Toxic; inhibition in vivo at 5 mg/kg (HepG2 [10]): 51.5%; Activity [11]: Non-Toxic; Activity [12]: Non-Toxic; Activity [13]: Non-Toxic; Activity (A549): Active; Activity [14]: Non-Toxic; inhibition in vivo at 15 mg/kg (T-24 [15]): 64.5%
7 | O=C(c1ccccc1)N1CCN(c2ccc3c4c(cccc24)C(=O)N(CCc2ccc4c(c2)OCO4)C3=O)CC1 | 21.6 | 35.2 | 31.5 | 24.4 | 
8 | CC(C)(C)OC(=O)N1CCN(c2ccc3c4c(cccc24)C(=O)N(Cc2ccc(Cl)cc2)C3=O)CC1 | 25.3 | 22.6 | 23.2 | 21.3 | 
9 | O=C(c1ccccc1)N1CCN(c2ccc3c4c(cccc24)C(=O)N(CCO)C3=O)CC1 | 19.5 | 16.4 | 17.4 | 20.4 | 
10 | O=C(c1ccccc1)N1CCN(c2ccc3c4c(cccc24)C(=O)N(Cc2ccc(Cl)cc2)C3=O)CC1 | 43.6 | 31 | 39.6 | 29.2 | 
11 | CCCCN1C(=O)c2cccc3c(N4CCN(C(=S)SCc5ccccc5)CC4)ccc(c23)C1=O | 26.1 | 25.3 | 29.7 | 22.6 | 
12 | O=C(c1ccccc1)N1CCN(c2ccc3c4c(cccc24)C(=O)N(Nc2ccccn2)C3=O)CC1 | 35.3 | 29.5 | 38.5 | 32.4 | 
13 | CCCCN1C(=O)c2cccc3c(N4CCN(C(=O)c5ccccc5)CC4)ccc(c23)C1=O | 11.2 | 15.4 | 14.3 | 10.4 | 
14 | O=C1c2cccc3c(N4CCN(C(=S)SCc5ccccc5)CC4)ccc(c23)C(=O)N1CCc1ccc(O)c(O)c1 | 34.7 | 35 | 31.1 | 31.2 | 
15 | CN(C)CCN1C(=O)c2cccc3c(N4CCN(C(=O)OC(C)(C)C)CC4)ccc(c23)C1=O | 10.9 | 10.2 | 11.4 | 6.91 | 
16 | CC(C)(C)OC(=O)N1CCN(c2ccc3c4c(cccc24)C(=O)N(CCc2ccc4c(c2)OCO4)C3=O)CC1 | 5.78 | 4.16 | 4.31 | 3.69 | 
17 | O=c1[nH]cc(F)c(=O)[nH]1 [FLUOROURACIL] |  |  | 25.5 | 40.1 | 

Row | SMILES | IC50 (MGC-803) [µM] | IC50 (SK-OV-3 [1]) [µM] | IC50 (HepG2 [2]) [µM] | IC50 (T-24 [3]) [µM] | further results
18 | CCCCN1C(=O)c2cccc3c(N4CCN(C(=O)OC(C)(C)C)CC4)ccc(c23)C1=O | > 50 | > 50 | > 50 | > 50 | 
19 | O=C1c2cccc3c(N4CCN(C(=S)SCc5ccccc5)CC4)ccc(c23)C(=O)N1Nc1nc2ccccc2s1 | 18.5 | 24.6 | 23.7 | 20.4 | 
20 | CC(C)(C)OC(=O)N1CCN(c2ccc3c4c(cccc24)C(=O)N(c2nc4ccccc4[nH]2)C3=O)CC1 | > 50 | > 50 | > 50 | > 50 | 
21 | O=C(c1ccccc1)N1CCN(c2ccc3c4c(cccc24)C(=O)N(CCc2ccc(O)c(O)c2)C3=O)CC1 | 25.8 | 21.4 | 28.5 | 26.5 | 
22 | O=C(c1ccccc1)N1CCN(c2ccc3c4c(cccc24)C(=O)N(Cc2ccccc2)C3=O)CC1 | 23.5 | 22.4 | 26.8 | 17.7 | 
23 | CNCCCN1C(=O)c2cccc3c(N4CCN(C(=O)c5ccccc5)CC4)ccc(c23)C1=O | 8.09 | 6.06 | 4.41 | 6.25 | 
24 | CNCCCN1C(=O)c2cccc3c(N4CCN(C(=O)OC(C)(C)C)CC4)ccc(c23)C1=O | 17.4 | 13.1 | 9.75 | 8.45 | 
25 | CC(C)(C)OC(=O)N1CCN(c2ccc3c4c(cccc24)C(=O)N(Nc2ccccn2)C3=O)CC1 | 16.5 | 17.8 | 15.3 | 12.4 | 
26 | O=C1c2cccc3c(N4CCN(C(=S)SCc5ccccc5)CC4)ccc(c23)C(=O)N1Nc1ccccc1 | 19.4 | 30.8 | 28.4 | 22.4 | 
27 | O=C(c1ccccc1)N1CCN(c2ccc3c4c(cccc24)C(=O)N(Nc2nc4ccccc4s2)C3=O)CC1 | 27.5 | 19.4 | 22.4 | 24.1 | 
28 | CC(C)(C)OC(=O)N1CCN(c2ccc3c4c(cccc24)C(=O)N(Nc2nc4ccccc4s2)C3=O)CC1 | 19.5 | 23.5 | 22.4 | 20.3 | 
29 | CC(C)(C)OC(=O)N1CCN(c2ccc3c4c(cccc24)C(=O)N(CCO)C3=O)CC1 | 8.81 | 9.13 | 7.62 | 7.41 | 
30 | O=C(c1ccccc1)N1CCN(c2ccc3c4c(cccc24)C(=O)N(Nc2ccccc2)C3=O)CC1 | 26.4 | 23.3 | 21.5 | 19.3 | 
31 | CNCCN1C(=O)c2cccc3c(N4CCN(C(=O)OC(C)(C)C)CC4)ccc(c23)C1=O | 8.69 | 5.42 | 7.48 | 3.88 | 
32 | O=C1c2cccc3c(N4CCN(C(=S)SCc5ccccc5)CC4)ccc(c23)C(=O)N1CCc1ccc2c(c1)OCO2 | 12.1 | 10.5 | 11.8 | 14.6 | 
33 | O=C1c2cccc3c(N4CCN(C(=S)SCc5ccccc5)CC4)ccc(c23)C(=O)N1Cc1ccccc1 | 38.9 | 30 | 40.6 | 31.7 | 
34 | CN(C)CCN1C(=O)c2cccc3cc(N)cc(c23)C1=O [AMONAFIDE] |  |  | 7.94 |  | inhibition in vivo at 5 mg/kg (T-24 [6]): 70.6%; inhibition in vivo at 15 mg/kg (HepG2 [7]): 62%; inhibition in vivo at 5 mg/kg (SK-OV-3 [16]): 62.1%
